Source: US20220296595A1, “CDK INHIBITORS” (QILU REGOR THERAPEUTICS INC., priority 2019, published 2022)
Read-outs that look alike come from different tables or passages of the source.

Columns and labels:
[1] = test system: phosphorylation of Retinoblastoma Protein (pRb Ser807/811 or Ser780) in T47D cells; experiment: Inhibition of phosphorylation of retinoblastoma protein (pRb) in T47D cell (ELISA); type: cell-based, human; conditions: Homo sapiens, T47D, read-out: Phospho T47D Ser807 IC50, pRb Ser807 phosphorylation, T47D cells
Procedure: T47D breast cancer cells from American Type Culture Collection (ATCC, HTB-133) were plated at 40,000 cells/well in 96-well plates, and were incubated in RPMI 1640 medium (Gibco, 31800105) with 10% Fetal Bovine Serum (FBS, Biowest, FB-1058). Cells were then allowed to adhere overnight at 37° C., 5% CO2. The following day, compounds were titrated in a 3-fold dilution scheme, and the highest compound concentration tested was […]. After 24 hours incubation with compounds, cells were lysed in ice-cold lysis buffer containing phosphatase inhibitor cocktail and 1 mM PMSF. Cell lysates (50 μL/well) were then transferred to ELISA plates (pRb Ser807/811 ELISA kit, Cell Signaling, 13152 or pRb Ser780 ELISA kit, Cell Signaling, 13016)). Plates were incubated overnight at 4° C., with constant slow speed shaking. After incubation, plates were washed following manufacturer's recommendations, and then 100 μL reconstituted detection antibody was added to each well and incubated for 1 hour at 37° C. After incubation, plates were washed, and then 100 μL reconstituted HRP-linked secondary antibody was added to each well and incubated for 30 mins at 37° C. After incubation, plates were washed. Then, 100 μL TMB substrate was added to each well and incubated for 10 min at 37° C. or 30 min at 25° C. Finally, 100 μL of STOP solution was added to each well and mixed gently for a few seconds. Plates were read on the Envision plate reader (PerkinElmer, 2104-0010) using the 96-well […] mode. IC50 values were calculated using 4 parameter sigmoidal dose-response model of Xlfit5/GraphPad Prism 5 software.

CDK4/CyclinD1 = biological target: T1, CDK4/CyclinD1 (Homo sapiens, UniProt P11802); experiment: Assay for inhibition of CDK4/CyclinD1 (Caliper microfluidic kinase assay); type: biochemical
T1 construct: purchased Thermofisher PR8064A
T1 sequence (P11802 whole entry): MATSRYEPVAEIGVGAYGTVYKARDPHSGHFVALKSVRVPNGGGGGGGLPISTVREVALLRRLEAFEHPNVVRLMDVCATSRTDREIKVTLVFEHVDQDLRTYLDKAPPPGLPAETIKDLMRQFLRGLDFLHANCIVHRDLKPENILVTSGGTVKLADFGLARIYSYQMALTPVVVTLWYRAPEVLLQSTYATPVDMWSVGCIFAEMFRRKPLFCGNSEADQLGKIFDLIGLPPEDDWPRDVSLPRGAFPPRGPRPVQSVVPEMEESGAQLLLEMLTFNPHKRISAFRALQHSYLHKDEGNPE
T1 sequence (P24385 whole entry partner): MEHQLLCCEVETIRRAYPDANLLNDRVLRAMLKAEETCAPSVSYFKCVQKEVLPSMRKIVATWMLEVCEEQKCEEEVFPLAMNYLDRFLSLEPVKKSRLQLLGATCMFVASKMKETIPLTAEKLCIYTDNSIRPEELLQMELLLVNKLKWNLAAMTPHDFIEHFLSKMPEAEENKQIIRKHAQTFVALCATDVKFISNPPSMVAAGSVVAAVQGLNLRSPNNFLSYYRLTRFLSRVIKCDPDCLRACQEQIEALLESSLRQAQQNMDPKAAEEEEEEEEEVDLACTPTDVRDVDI
In short: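 Caliper microfluidic mobility-shift assay tracking phosphorylation of 1 μM FL-34 peptide by 1 nM CDK4/CyclinD1 with 200 μM ATP in HEPES pH 7.5 buffer with 10 mM MgCl2. Reaction ran 3 h at room temperature, was stopped with EDTA, and IC50 came from a 4-parameter sigmoidal fit.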

CDK6/CyclinD3 = biological target: T2, CDK6/CyclinD3 (Homo sapiens, UniProt Q00534); experiment: Assay for inhibition of CDK6/CyclinD3 (Caliper microfluidic kinase assay); type: biochemical; conditions: CDK6/CyclinD3, 300 μM ATP
T2 construct: purchased Carna 04-107
T2 sequence (Q00534 whole entry): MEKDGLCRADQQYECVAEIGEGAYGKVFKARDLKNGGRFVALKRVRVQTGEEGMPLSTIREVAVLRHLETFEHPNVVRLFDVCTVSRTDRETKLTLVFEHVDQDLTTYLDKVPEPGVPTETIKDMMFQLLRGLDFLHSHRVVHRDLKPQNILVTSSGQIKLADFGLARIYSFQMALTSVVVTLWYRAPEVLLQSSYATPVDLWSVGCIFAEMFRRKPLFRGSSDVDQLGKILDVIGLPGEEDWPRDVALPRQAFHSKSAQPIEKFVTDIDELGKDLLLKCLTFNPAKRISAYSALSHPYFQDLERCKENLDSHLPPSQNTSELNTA
T2 sequence (P30281 whole entry partner): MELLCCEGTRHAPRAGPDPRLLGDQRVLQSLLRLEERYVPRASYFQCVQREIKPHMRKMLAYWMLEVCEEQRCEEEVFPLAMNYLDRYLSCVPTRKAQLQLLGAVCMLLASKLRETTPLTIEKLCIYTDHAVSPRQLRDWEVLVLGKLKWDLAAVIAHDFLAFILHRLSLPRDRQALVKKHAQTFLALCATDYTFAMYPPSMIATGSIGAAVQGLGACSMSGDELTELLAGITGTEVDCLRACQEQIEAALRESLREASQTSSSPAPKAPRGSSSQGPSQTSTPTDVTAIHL
Procedure: The CDK6 enzyme assay for IC50 determination was performed as follows. Microfluidic kinase detection technology (Caliper) was used to monitor the phosphorylation of peptide substrate by CDK6/CyclinD3. The total reaction volume is 15 μL containing buffer A (100 mM HEPES (pH 7.5), 0.1% BSA, 0.01% Triton X-100, 1 mM DTT, 10 mM MgCl2, 10 μM Sodium Orthovanadate, 10 μM Beta-Glycerophosphate), 300 μM ATP, 2 nM CDK6/CyclinD3 (Carna, 04-107), 1 μM FL-34 (5-FAM-[…]), and the test compound at appropriate dilutions in DMSO. All components were added to the 384-well plate (Corning, 4514), and incubated at Room Temperature for 3 hours. The reaction was terminated by addition of 15 μL Stop Buffer (180 mM HEPES (pH 7.5), 20 mM EDTA, Coating-3 reagent (PerkinElmer, 760050)). The plate was then loaded on Caliper EZ Reader (EZ Reader II, PerkinElmer, HD-4HYSG2772), and the reaction mixtures including substrate and product were sipped into the microfluidic chip for separation and detection. The IC50 values of the test compound were determined by fitting the inhibition curves by 4 parameter sigmoidal dose-response model using the Xlfit5/GraphPad Prism 5 software.

CDK2/CyclinE1 = biological target: T3, CDK2/CyclinE1 (Homo sapiens, UniProt P24941); experiment: Assay for inhibition of CDK2/CyclinE1 (Caliper microfluidic kinase assay); type: biochemical; conditions: read-out: CDK2 IC50
T3 construct: purchased SignalChem C29-18G
In short: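 Caliper microfluidic mobility-shift assay: 5 nM CDK2/CyclinE1, 100 μM ATP, 5 μM FL-18 peptide (5-FAM-QSPKKG-NH2) in pH 7.5 HEPES buffer with MgCl2, DTT, BSA, Triton X-100. Incubated 3 hours at room temperature, EDTA-stopped; IC50 from 4-parameter sigmoidal fit.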

T47D breast cancer cells = experiment: Anti-proliferation assay in T47D cell (Cyquant, day 6); type: cell-based, human; conditions: Homo sapiens, T47D, anti-proliferation, T47D cells; read-out: T47D IC50
In short: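 Cells were grown in RPMI 1640 with 10% FBS at 37 °C and dosed the day after plating at ten concentrations, 10 μM to 0.51 nM in 3-fold steps. CyQuant fluorescence (ex 485/em 535 nm) was read on day 6. IC50 was fitted from baseline-subtracted viability curves, with the baseline read after overnight culture.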

| SMILES | IC50 [1] [nM] | IC50 (CDK4/CyclinD1; CDK4/CyclinD1, 200 μM ATP) [nM] | IC50 (CDK6/CyclinD3) [nM] | IC50 (CDK2/CyclinE1; CDK2/CyclinE1, 100 μM ATP) [nM] | IC50 (T47D breast cancer cells) [nM] | IC50 (CDK4/CyclinD1; CDK4/CyclinD1) [nM] | IC50 (CDK2/CyclinE1; CDK2/CyclinE1) [nM] |
| --- | --- | --- | --- | --- | --- | --- | --- |
| CC(C)c1cnn2ccc(-c3nc(Nc4ccc(N5CCN(CCO)CCC5=O)cn4)ncc3F)cc12 [Synthetic Example 52] | < 100 | < 10 | 10 to 100 | 10 to 100 |  |  |  |
| CC(C)c1cnn2ccc(-c3ccnc(Nc4ccn(CC5CCN(C(=O)CO)CC5)n4)n3)cc12 [Synthetic Example 55] | 100 to 500 | 10 to 100 |  | > 1000 | 500 to 1000 |  |  |
| COc1nc(-c2ccnc(Nc3ccc4c(n3)CCN(C(=O)CN(C)C)C4)n2)cc2c1ncn2C(C)C [Synthetic Example 140] | < 100 | < 10 | 10 to 100 | > 1000 |  |  |  |
| CC(C)c1cnn2ccc(-c3ccnc(Nc4ccn(CC5CCNCC5)n4)n3)cc12 [compound 32] | 100 to 500 | 10 to 100 |  | > 1000 | 100 to 500 |  |  |
| CC(C)c1cnn2ccc(-c3ccnc(Nc4cnn(CC5CCNCC5)c4)n3)cc12 [compound 36] | 100 to 500 | 10 to 100 |  | 10 to 100 | 100 to 500 |  |  |
| CC(C)c1cnn2c(C#N)cc(-c3ccnc(Nc4ccc(N5CCNCC5=O)cn4)n3)cc12 [compound 38] | 500 to 1000 | 10 to 100 |  | > 1000 | > 1000 |  |  |
| CC(C)c1cnn2ccc(-c3ccnc(Nc4ccn(CC5CCN(C(=O)CC#N)CC5)n4)n3)cc12 [compound 56] | 100 to 500 | 10 to 100 |  | > 1000 |  |  |  |
| COc1nc(-c2nc(Nc3ccc(N4CC5CCC(C4)O5)cn3)ncc2F)cc2c1nc(C)n2C(C)C [compound 65] | 100 to 500 |  |  |  |  | 10 to 100 | > 1000 |
| COc1nc(-c2ccnc(Nc3ccc(N4CCOCC4)cn3)n2)cc2c1ncn2C(C)C [compound 66] | 100 to 500 |  |  |  | 100 to 500 | < 10 | > 1000 |
| COc1nc(-c2ccnc(Nc3ccc(CN4CCC(C#N)C4)cn3)n2)cc2c1ncn2C(C)C (centres unmarked) [compound 67] | 100 to 500 |  |  |  |  | 10 to 100 | > 1000 |
| COc1nc(-c2ccnc(Nc3ccc(CN4CCC(F)(F)C4)cn3)n2)cc2c1ncn2C(C)C [compound 69] | 100 to 500 |  |  |  | 100 to 500 | 10 to 100 | > 1000 |
| COc1nc(-c2ccnc(Nc3ccc(CN4CCC(F)C4)cn3)n2)cc2c1ncn2C(C)C (centres unmarked) [compound 76] | 100 to 500 |  |  |  |  | 10 to 100 | > 1000 |
| COc1nc(-c2nc(Nc3ccc(N4CCC5(CC4)CC(=O)NC5=O)cn3)ncc2F)cc2c1nc(C)n2C(C)C [compound 79] | 100 to 500 |  |  |  |  | 10 to 100 | > 1000 |
| COc1nc(-c2ccnc(Nc3ccc(CN4CCOCC4)cn3)n2)cc2c1ncn2C(C)C [compound 81] | 100 to 500 |  |  |  | 100 to 500 | 10 to 100 | > 1000 |
| COc1nc(-c2nc(Nc3ccc(N4CCCC4=O)cn3)ncc2F)cc2c1nc(C)n2C(C)C [compound 82] | 100 to 500 |  |  |  | 100 to 500 | 10 to 100 | 100 to 1000 |
| COc1nc(-c2ccnc(Nc3ccc(N4CCOC(C)(C)C4)cn3)n2)cc2c1ncn2C(C)C [compound 88] | 100 to 500 |  |  |  | 100 to 500 | 10 to 100 | > 1000 |
